# Source: US10676429B2, “Sulfamoyl-arylamides and the use thereof as medicaments for the treatment of hepatitis B” (priority 2012, dated 2020)
# pEC50: −log10 of the molar value.
# Legend:
# [1] = system: HBV; assay: Anti-HBV activity in HepG2.117 cell line (Tet-off, intracellular HBV DNA, realtime PCR); type: cell-based; conditions: HepG2.117 cells, 3 days of treatment, intracellular HBV DNA, read-out: HepG2 117 EC50
# [2] = Cytotoxicity in HepG2 cells, 4 days, Resazurin assay; conditions: human, HepG2 cells
# [3] = system: HBV; assay: Anti-HBV activity in stable transfected HepG2.2.15 cell line (HBV DNA from secreted virions, realtime PCR); type: cell-based; conditions: HepG2.2.15 cells, 6 days of treatment, secreted virion HBV DNA, read-out: HepG2 2.15 EC50
# [4] = Hepatitis B virus, HepG2.117, 72 h
# [5] = Hepatitis B virus, HepG2.2.15, 144 h
SMILES,"pEC50 [1, 4]",CC50 at 4 days [2],"pEC50 [3, 5]",pEC50 [1],pEC50 [3]
Cc1cc(NC(=O)c2cccc(S(=O)(=O)NC3(C)CC3)c2)ccc1F [Compound 94],6.64,> 25 µM,6.82,,
Cc1cc(NC(=O)c2cccc(S(=O)(=O)N[C@H](C)C3CC3)c2)ccc1F [Compound 152],6.24,> 25 µM,> 7.00,,
Cc1cc(NC(=O)c2cccc(S(=O)(=O)N[C@H]3c4ccccc4C[C@H]3O)c2)ccc1F [Compound 177],6.14,> 25 µM,6.11,,
CC1(NS(=O)(=O)c2ccc(Cl)c(C(=O)Nc3ccc(F)c(C(F)(F)F)c3)c2)COC1 [Compound 233],< 6.00,> 25 µM,< 6.00,,
Cc1cc(NC(=O)c2cccc(S(=O)(=O)NCC(F)F)c2)ccc1F [Compound 227],6.15,> 25 µM,6.80,,
O=C(Nc1cccc(C(F)(F)F)c1)c1cccc(S(=O)(=O)NC2CCCC2)c1 [Compound 81],6.09,15.3 µM,6.62,,
Cc1cc(NC(=O)c2cccc(S(=O)(=O)NC3Cc4ccccc4C3O)c2)ccc1F (stereo not drawn) [Compound 141],6.22,> 25 µM,6.44,,
Cc1cc(NC(=O)c2cc(S(=O)(=O)N[C@H]3CCOC3)ccc2C(F)(F)F)ccc1F [Compound 242],5.74,> 25 µM,5.72,,
C=CC(C)NS(=O)(=O)c1cccc(C(=O)Nc2ccc(F)c(C)c2)c1 (stereo not drawn) [Compound 150],6.14,> 25 µM,7.00,,
Cc1ccc(S(=O)(=O)NC2(C)COC2)c(F)c1C(=O)Nc1ccc(F)c(Cl)c1 [Compound 195],6.74,> 25 µM,6.57,,
"Cc1cc(NC(=O)c2cccc(S(=O)(=O)NC3Cc4ccccc4C3O)c2)ccc1F (single isomer, unassigned) [Compound 141a, N-(4-fluoro-3-methyl-phenyl)-3-[[(1S,2S)-1-hydroxyindan-2-yl]-sulfamoyl]benzamide or N-(4-fluoro-3-methyl-phenyl)-3-[[(1R,2R)-1-hydroxyindan-2-yl]sulfamoyl]benzamide]",,> 25 µM,,5.78,6.15
CC[C@@H](C)NS(=O)(=O)c1ccc(F)c(C(=O)Nc2ccc(F)c(F)c2)c1 [Compound 100],6.37,> 25 µM,6.89,,
Cc1ccc(S(=O)(=O)NC2(C)COC2)cc1C(=O)Nc1ccc(F)c(C(F)F)c1 [Compound 113],6.74,> 25 µM,6.82,,
Cc1ccc(S(=O)(=O)NC2(C)COC2)c(F)c1C(=O)Nc1ccc(F)c(F)c1 [Compound 194],6.51,> 25 µM,6.42,,
CCC1(NS(=O)(=O)c2cccc(C(=O)Nc3ccc(F)c(C)c3)c2)CC1 [Compound 85],6.42,> 25 µM,7.30,,
Cc1cc(NC(=O)c2cc(S(=O)(=O)N[C@H]3CCOC3)ccc2F)ccc1F [Compound 236],5.80,> 25 µM,6.32,,
Cc1cc(NC(=O)c2cc(F)cc(S(=O)(=O)N[C@H]3CCOC3)c2)ccc1F [Compound 241],5.75,> 25 µM,6.42,,
O=C(Nc1ccccc1)c1cccc(S(=O)(=O)NC2CC2)c1 [Compound 55],5.49,> 100 µM,5.51,,
Cc1cc(NC(=O)c2cccc(S(=O)(=O)N[C@@H]3CCC[C@H]3O)c2)ccc1F [Compound 173],6.44,> 25 µM,6.43,,
Cc1cc(NC(=O)c2cccc(S(=O)(=O)NC3Cc4ccccc4C3)c2)ccc1F [Compound 168],6.43,11.8 µM,6.57,,
CN(C(=O)C1CCCCC1)S(=O)(=O)c1cccc(C(=O)Nc2ccc(F)cc2)c1 [Compound 48],5.73,97.2 µM,5.53,,
Cc1cc(NC(=O)c2cccc(S(=O)(=O)NC3CCC(=O)N(C)C3)c2)ccc1F (stereo not drawn) [Compound 180],5.89,> 25 µM,6.12,,
CC(C)NS(=O)(=O)c1cccc(C(=O)Nc2ccc(F)c(C3CC3)c2)c1 [Compound 84],6.04,> 25 µM,6.49,,
Cc1cc(NC(=O)c2c(Cl)ccc(S(=O)(=O)N[C@H]3CCOC3)c2Cl)ccc1F [Compound 125],5.94,> 25 µM,5.84,,
O=C(Nc1ccc(F)c(F)c1)c1cccc(S(=O)(=O)NC2CCCC2)c1 [Compound 14],6.44,11.7 µM,7.05,,
O=C(Nc1ccc(Cl)cc1)c1cc(S(=O)(=O)NC2CCCC2)ccc1F [Compound 51],5.03,20.8 µM,5.40,,
